Biological target: T1, human steroid sulfatase (Homo sapiens, UniProt P08842)
T1 construct: Human placenta is obtained freshly after delivery; from tissue; host or cells: human placenta (microsomes, Triton X-100 extract, column-purified)
T1 sequence (P08842 22-583): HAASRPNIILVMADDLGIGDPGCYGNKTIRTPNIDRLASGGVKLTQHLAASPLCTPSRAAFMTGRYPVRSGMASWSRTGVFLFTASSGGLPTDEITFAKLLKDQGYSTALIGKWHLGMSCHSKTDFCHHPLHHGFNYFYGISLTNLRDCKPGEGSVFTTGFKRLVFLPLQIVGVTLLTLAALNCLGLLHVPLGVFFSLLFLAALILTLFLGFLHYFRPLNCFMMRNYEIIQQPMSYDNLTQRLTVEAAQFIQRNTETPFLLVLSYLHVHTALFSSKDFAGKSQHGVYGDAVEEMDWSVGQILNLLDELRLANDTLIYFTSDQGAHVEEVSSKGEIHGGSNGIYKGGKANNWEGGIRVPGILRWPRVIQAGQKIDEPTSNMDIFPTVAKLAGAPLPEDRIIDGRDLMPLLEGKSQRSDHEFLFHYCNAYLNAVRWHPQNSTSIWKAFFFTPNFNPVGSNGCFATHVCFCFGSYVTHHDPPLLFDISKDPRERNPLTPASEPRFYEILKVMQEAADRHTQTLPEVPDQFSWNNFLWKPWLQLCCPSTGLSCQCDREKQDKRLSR
Assay: Assay of Human Steroid Sulfatase (purified from placenta, 4-methylumbelliferyl sulfate cleavage, fluorescence)
Assay type: biochemical
Settings: reference compound, determined in parallel to test compounds; substrate 4-methylumbelliferyl sulfate, 37° C., 1 hour
Experimental: For storage, the material is frozen at −70° C.
The activity is recovered in the flow-through.
Plates are incubated at 37° C. for 1 hour.
Relative IC50 values are defined as follows: […]

`CC12CCC3c4ccc(OS(N)(=O)=O)cc4CCC3C1CCC2=O` (stereo not shown) [estrone sulfamate, Estrone sulfamate] showed an IC50 of roughly 60 nM.

Source: patent publication US7482462B2, “Acylsulfonamides as inhibitors of steroid sulfatase” (priority 2001, dated 2009)
